From patent publication US20260335278A1, “PHYTOCHEMICAL FORMULATIONS FOR TREATING STRESS AND ANXIETY” (GBS GLOBAL BIOPHARMA, INC., priority 2022, published 2026)
“Also recorded” adds a separate entry of the source.

Assays:
[1] = system: zebrafish larvae; assay: Light/Dark Stress Response (5 min alternating pulses of dark and light for 30 min); assay type: in vivo; design: key to Light/Dark Stress Response: +: statistically significant increase; −−: statistically significant decrease
Method: (§1) The validation process for the phytochemicals derived from Piper methysticum, other Piper plant family members, and non-Piper medicinal plants and fungi includes testing the selected phytochemical drug candidates as singles, doubles, and triples in two complementary zebrafish models of stress and anxiety. These two complementary assays are the Light/Dark Stress Response test that is illustrated in FIG. 5 (after the 90 min study of the effect of the compounds and mixtures on Baseline Activity) and the Thigmotaxis assay, as illustrated in FIG. 61A and FIG. 61B, which is also known as the wall flower effect, like the social anxiety of humans. Zebrafish larvae show a clear and distinct pattern of swimming in response to rapidly alternating light and dark conditions in the Light/Dark Response testing, which trigger a flight or fight response and darting behavior indicative of great stress and anxiety. The Light/Dark testing uses a control group to automatically track, using an automatic tracking device, the larval behavior in response to dark to light conditions. The thigmotaxis assay also uses automatic tracking and appropriate controls. In multiple embodiments additional Zebrafish larvae are given various concentrations of the selected phytochemicals from Table 1 for tracking Light/Dark Responses or Thigmotactic behavioral changes in the treated zebrafish larvae. Table 2A and Table 2B summarize the results from both assays when the individual phytochemicals are exposed to the: Baseline Activity (90 minutes in the light), Light/Dark Stress Response (5 min alternating pulses of dark and light for 30 min.), and Thigmotaxis Activity (% of time in the light center of the chamber (anxiety inducing) versus % of time near the dark (soothing) wall).
(§2) The present invention includes a process to discover new pharmaceutical medicines for the treatment of stress, anxiety and anxiety-related disorders in a human. The preclinical testing included the effects of these 14 individual phytochemicals and 300 ratio-controlled mixtures of these phytochemicals in assays measuring the behavioral stress response patterns of zebrafish larvae. Larval behavior is assessed with at least one functional assay of stress or anxiety following acute exposure to each phytochemical sample formulated. Stereotypical basal activity patterns of zebrafish will be assessed to determine the potential side effects of the phytochemical samples in a concentration dependent manner for each compound on two zebrafish models of stress and anxiety: 1) the Light/Dark Stress Response (5 min alternating pulses of light and dark) in small to med well plates (96-48 well plates), and 2) Thigmotaxis assays in large well plates with 50% of the swimming surface colored dark around the margins of the well in large (24-12 well plates) will be assessed for their efficacy in testing the phytochemicals.
(§3) The discovery methods of the present invention include testing the effects of up to 20 phytochemicals and 40 mixtures of the phytochemicals on behavioral stress response patterns of zebrafish larvae. Larval behavior was assessed with an automated video tracking system following acute exposure to each phytochemical sample. Stereotypical basal activity patterns of larvae were assessed to determine the concentration dependent effect of each compound. A zebrafish model of thigmotaxis in large well plates (24-12 well plates) was assessed for their efficacy in testing the phytochemicals. In the discovery method, fertilized eggs were kept on a re-circulating system in baskets until use at 120 hpf (5 days). At 120 hpf, larvae were loaded into 48 well plates in buffered fish media and acclimated to the plate in a heated light incubator for 2 hours. Larvae were acutely exposed with drug or controls at a 10× concentration and the plate was quickly transferred to a behavioral tracking system. Acute behavioral run was 90 minutes (baseline activity) in the light followed by alternating 5 minute bins (total 2 hours). […]

[2] = system: zebrafish larvae; assay: Baseline activity / baseline exposure (90 min continuous light), zebrafish larvae; assay type: in vivo; design: key to Baseline Exposure: +: statistically significant increase; −−: statistically significant decrease
Method: as §1, §2, §3

[3] = system: zebrafish larvae; assay: Zebrafish models of stress and anxiety, overall verdict (Light/Dark Stress Response and thigmotaxis); assay type: in vivo; conditions: for Anti-Anxiety Potential?: API used singly
Method: as §1
Additionally, testing is done with mixtures of these same selected phytochemicals from P. methysticum and other plants selected by our in silico analyses. The testing results are analyzed using artificial intelligence systems to rank effectiveness in reducing the Light/Dark response and thigmotactic behavior for the
The A1 enabled drug discovery platform database search data was evaluated to select the best drug candidates from: A Piper methysticum, B. within the Piper plant family (>200 Piper spp.), or C. traditional medicines to begin testing […] (API) singles, doubles, and triples in two complementary zebrafish models of anxiety light/dark startle response testing and thigmotaxis assays.
as §2
The discovery methods of the present invention include testing the effects of up to 20 phytochemicals and 40 mixtures of the phytochemicals on behavioral stress response patterns of zebrafish larvae. Larval behavior was assessed with an automated video tracking system following acute exposure to each phytochemical sample. […]

[4] = system: zebrafish larvae; assay: Thigmotaxis assay; assay type: in vivo; design: key: +: statistically significant increase; −−: statistically significant decrease
Method: as §1, §2, §3

[5] = Pharmacokinetics of piperine acting alone; assay type: in vivo
[6] = system: MAO-A; conditions: cited from earlier work
[7] = system: MAO-B; conditions: cited from earlier work

O=C(/C=C/C=C/c1ccc2c(c1)OCO2)N1CCCCC1 [piperine]
Light/Dark Stress Response ([1]; High): −− | Light/Dark Stress Response ([1]; Med): −− | Light/Dark Stress Response (5 min light/dark pulses) ([1]; vehicle 1% MeOH): stress response is reduced | Baseline Exposure ([2]; High): + | Baseline Exposure ([2]; Low): −− | effect on the baseline activity ([2]; acting alone): virtually no effect on the baseline activity | Anti-Anxiety Potential? [3]: Yes | Therapeutic Potential ([3]; vehicle 1% MeOH): YES-top pick | Thigmotaxis Model ([4]; High): −− | pharmacokinetics [5]: positive results

COc1ccc(/C=C/c2cc(OC)cc(=O)o2)cc1 [yangonin]
Approx. Dose (cell or animal experiments), MAO-A [6]: MAO-A1.29 μM, | Light/Dark Stress Response ([1]; High): −− | Light/Dark Stress Response (5 min light/dark pulses) ([1]; vehicle 0.5% MeOH): stress response is reduced | Light/Dark Stress Response (5 min light/dark pulses) ([1]; vehicle 1% MeOH): stress response is reduced | Baseline Exposure ([2]; High): + | Baseline Exposure ([2]; Low): + | Baseline Exposure ([2]; Med): + | baseline Activity (90 min light) ([2]; vehicle 0.5% MeOH): baseline activity is close to controls; also recorded: (slight increase initially) | baseline Activity (90 min light) ([2]; vehicle 1% MeOH): baseline activity is close to controls; also recorded: (slight increase initially) | Anti-Anxiety Potential? [3]: Yes | Therapeutic Potential ([3]; vehicle 0.5% MeOH): Yes | Therapeutic Potential ([3]; vehicle 1% MeOH): Yes | Thigmotaxis Model ([4]; High): −− | Thigmotaxis Model ([4]; Med): −− | Approx. Dose (cell or animal experiments), MAO-B [7]: MAO-B 0.085 μM
